“And” between values parts separate entries of the source, which are not always exact repeats. Equal entries are not always repeated. Where two headings read alike, the source gives them in different places.
Key:
HDAC5 = HDAC5 (Homo sapiens (Human), UniProt Q9UQL6); experiment: Caliper HDAC enzymatic endpoint assay, HDAC5; format: biochemical; settings: Table 2C; read-out: HDAC5 IC50 after 0 hr preincubation
HDAC6 = HDAC6 (Homo sapiens (Human), UniProt Q9UBN7); experiment: Caliper HDAC enzymatic endpoint assay, HDAC6; format: biochemical; settings: Table 2C; read-out: HDAC6 IC50 after 0 hr preincubation
[1] = test system: HDACs 1, 2, 3, 4, 5, 6, 7, 8, and 9; experiment: HDAC selectivity panel (Caliper), isoform selectivity; settings: from IC50 values
HDAC7 = HDAC7 (Homo sapiens (Human), UniProt Q8WUI4); experiment: Caliper HDAC enzymatic endpoint assay, HDAC7; format: biochemical; settings: Table 2C; read-out: HDAC7 IC50 after 0 hr preincubation
HDAC1 [2] = biological target: T1, HDAC1 (Homo sapiens (Human), UniProt Q13547); experiment: Caliper HDAC enzymatic endpoint assay, HDAC1; format: biochemical
Rat islets = experiment: Glucolipotoxicity-induced apoptosis in rat islets, cell death ELISA; format: cell-based; settings: 10 μM, 0.5 mM palmitate and 25 mM glucose, 60 h
Procedure: Rat islets (50 islets/well) were cultured in 48-well plates (NUNC) and exposed to palmitate (0.5 mM) and glucose (25 mM) in medium supplemented with 1% FBS and 1% BSA for 60 hours. Cell death was determined in biological duplicates using a cell death ELISA assay (Roche).
Compounds of the invention protect against combined palmitate and high glucose induced apoptosis in INS-1E cells. […] Apoptosis was measured by caspase-3 activity assay.

HDAC1 [3] = biological target: T1, HDAC1; experiment: Kinetics of the inhibition of HDAC1; settings: for T1/2: HDAC1 residence
dopaminergic signaling = experiment: Amphetamine-induced hyperactivity (AIH); format: in vivo; settings: mice, 10 mg/kg once daily, data 18-24 h after the 7th dose
Procedure: Compounds of the invention were evaluated for their ability to influence dopaminerigic signaling according to the following procedure. Mice were dosed once daily with 10 mg/kg of compound 1. Data collected 18-24 h after the 7th dose. Amphetamine-induced hyperactivity (AIH) was examined in eight identical open-field chambers (16.5″×16″×12″; AccuScan Instruments, Columbus, Ohio). Activity was detected by infrared beam breaks and recorded automatically by VersaMax software (AccuScan). Daily sessions were automatically binned in 5 minute intervals (VersaDat; AccuSacn) for statistical analysis. AIH was run over three consecutive days as follows:
Day 1: Habituation: Mice were placed into the open-field for 20 minutes and then removed for a saline injection. Mice were placed back into the open-field for an additional 30 minutes, at which point the mice were returned to their home cage.
Day 2: Baseline Motor Activity: This phase was run identically to Day 1, with the exception that the second day lasted for one hour (20 minutes pre-injection; 40 minutes post-injection).
Day 3: Amphetamine Challenge: Mice were placed in the open-field. After 20 minutes, mice were removed and challenged with amphetamine, and placed back in the open-field for 80 minutes.
**Note: All HDAC inhibitor treatments occurred 18-25 hours prior to behavioral testing. […]

HDAC3 = HDAC3 (Homo sapiens (Human), UniProt O15379); experiment: Caliper HDAC enzymatic endpoint assay, HDAC3; format: biochemical
INS-1E cells = experiment: Palmitate and/or glucose-induced beta-cell apoptosis, caspase-3/7 activation; format: cell-based, rat; settings: 0.5 mM palmitate and/or 25 mM glucose, 48 hours
Procedure: Compounds of the invention were evaluated for their ability to suppress cytokine-induced beta-cell apoptosis and palmitate and/or glucose-induced beta-cell apoptosis by inhibition of HDAC3. Assay protocols were as follows: Cell culture and reagents. […] Recombinant IL-1β, IFN-γ, and TNF-α were purchased from R&D Systems. Palmitate, D-glucose and fatty acids-free low endotoxin BSA were purchased from Sigma. Palmitate was solubilized in 90% ethanol, heated to 60° C. and used 1:100 dilution in media. Caspase-Glo 3/7 was from Promega and 3-(4,5-dimethylthiazol-2-yl)-2,5-diphenyltetrazolium bromide (MTT) was from Calbiochem. Antibodies for HDAC1, HDAC2, HDAC3, pJNK, JNK cleaved caspase-9 and secondary horseradish-peroxidase conjugated goat anti-mouse and anti-rabbit antibodies were from Cell Signaling. Antibody for beta-actin was from Sigma and antibody against CHOP (GADD153) from Abcam. HDAC inhibitors were purchased from Selleck Chemicals or synthesized in-house. Primers were from Integrated DNA Technologies, High Capacity cDNA RT kit and SYBR green master mix were purchased from Applied Biosystems. […] Luminescence was measured after a two-hour incubation using an Envision plate reader (PerkinElmer). […] Apoptosis was measured by caspase-3/7 activation using a commercially available kit. […]

T1 sequence (Q13547 whole entry): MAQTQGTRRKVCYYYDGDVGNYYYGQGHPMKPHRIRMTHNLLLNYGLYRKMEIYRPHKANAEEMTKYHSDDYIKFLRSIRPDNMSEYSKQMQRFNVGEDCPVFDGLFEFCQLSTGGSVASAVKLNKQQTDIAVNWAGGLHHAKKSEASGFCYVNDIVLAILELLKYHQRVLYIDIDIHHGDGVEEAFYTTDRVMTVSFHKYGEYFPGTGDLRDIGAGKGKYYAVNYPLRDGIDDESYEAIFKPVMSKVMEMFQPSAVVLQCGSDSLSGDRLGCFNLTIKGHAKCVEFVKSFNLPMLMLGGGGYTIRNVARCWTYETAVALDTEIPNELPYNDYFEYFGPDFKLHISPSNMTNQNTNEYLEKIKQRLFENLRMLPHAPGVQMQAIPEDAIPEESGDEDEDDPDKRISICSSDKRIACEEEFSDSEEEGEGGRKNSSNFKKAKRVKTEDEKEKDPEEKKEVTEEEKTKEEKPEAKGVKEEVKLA
Chain of HDAC3 (O15379 whole entry): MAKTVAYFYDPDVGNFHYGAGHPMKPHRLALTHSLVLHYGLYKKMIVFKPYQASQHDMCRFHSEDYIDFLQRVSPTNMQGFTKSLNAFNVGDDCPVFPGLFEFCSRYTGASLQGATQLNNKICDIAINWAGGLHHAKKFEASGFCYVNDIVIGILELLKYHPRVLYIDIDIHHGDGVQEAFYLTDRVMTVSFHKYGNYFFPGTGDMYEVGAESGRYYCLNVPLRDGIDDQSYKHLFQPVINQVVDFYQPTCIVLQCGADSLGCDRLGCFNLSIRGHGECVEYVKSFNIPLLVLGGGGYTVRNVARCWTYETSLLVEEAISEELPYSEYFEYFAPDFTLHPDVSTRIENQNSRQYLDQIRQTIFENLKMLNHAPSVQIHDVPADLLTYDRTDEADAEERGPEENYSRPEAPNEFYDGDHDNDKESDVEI
Chain of HDAC3 (Q9Y618 395-489 partner): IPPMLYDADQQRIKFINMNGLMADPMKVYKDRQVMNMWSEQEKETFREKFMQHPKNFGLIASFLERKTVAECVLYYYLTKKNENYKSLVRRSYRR
Chain of HDAC6 (Q9UBN7 whole entry, canonical isoform): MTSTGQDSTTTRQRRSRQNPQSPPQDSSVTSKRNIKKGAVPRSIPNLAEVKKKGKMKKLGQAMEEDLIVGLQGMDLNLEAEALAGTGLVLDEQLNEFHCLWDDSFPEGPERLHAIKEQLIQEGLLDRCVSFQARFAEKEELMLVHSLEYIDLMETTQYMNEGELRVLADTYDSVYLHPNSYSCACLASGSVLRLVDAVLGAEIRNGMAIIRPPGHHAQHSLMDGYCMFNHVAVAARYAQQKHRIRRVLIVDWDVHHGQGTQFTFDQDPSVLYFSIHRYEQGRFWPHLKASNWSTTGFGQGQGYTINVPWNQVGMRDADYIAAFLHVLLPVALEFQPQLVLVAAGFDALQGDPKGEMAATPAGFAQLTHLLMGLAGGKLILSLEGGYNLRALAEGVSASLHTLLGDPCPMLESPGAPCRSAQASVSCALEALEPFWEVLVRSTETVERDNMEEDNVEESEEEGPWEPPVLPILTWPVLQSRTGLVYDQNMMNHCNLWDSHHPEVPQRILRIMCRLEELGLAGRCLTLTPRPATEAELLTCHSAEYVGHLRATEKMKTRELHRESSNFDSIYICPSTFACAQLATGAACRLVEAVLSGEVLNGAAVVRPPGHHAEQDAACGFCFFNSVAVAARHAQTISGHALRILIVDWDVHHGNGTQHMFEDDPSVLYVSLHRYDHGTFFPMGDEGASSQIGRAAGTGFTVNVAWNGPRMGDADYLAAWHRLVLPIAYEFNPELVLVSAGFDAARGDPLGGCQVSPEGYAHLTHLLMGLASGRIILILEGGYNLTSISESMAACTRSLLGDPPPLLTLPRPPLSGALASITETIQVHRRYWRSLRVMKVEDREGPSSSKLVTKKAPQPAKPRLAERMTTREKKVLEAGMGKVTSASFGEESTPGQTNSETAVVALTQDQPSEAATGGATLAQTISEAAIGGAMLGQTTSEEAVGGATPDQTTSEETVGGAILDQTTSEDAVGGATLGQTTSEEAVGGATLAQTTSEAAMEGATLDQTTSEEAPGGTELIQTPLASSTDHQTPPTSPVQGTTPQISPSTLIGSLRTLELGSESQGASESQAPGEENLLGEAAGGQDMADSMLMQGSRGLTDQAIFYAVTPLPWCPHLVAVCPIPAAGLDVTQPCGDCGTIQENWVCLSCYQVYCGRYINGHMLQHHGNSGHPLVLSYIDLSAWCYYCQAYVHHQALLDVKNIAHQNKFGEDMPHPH
Chain of HDAC7 (Q8WUI4 whole entry): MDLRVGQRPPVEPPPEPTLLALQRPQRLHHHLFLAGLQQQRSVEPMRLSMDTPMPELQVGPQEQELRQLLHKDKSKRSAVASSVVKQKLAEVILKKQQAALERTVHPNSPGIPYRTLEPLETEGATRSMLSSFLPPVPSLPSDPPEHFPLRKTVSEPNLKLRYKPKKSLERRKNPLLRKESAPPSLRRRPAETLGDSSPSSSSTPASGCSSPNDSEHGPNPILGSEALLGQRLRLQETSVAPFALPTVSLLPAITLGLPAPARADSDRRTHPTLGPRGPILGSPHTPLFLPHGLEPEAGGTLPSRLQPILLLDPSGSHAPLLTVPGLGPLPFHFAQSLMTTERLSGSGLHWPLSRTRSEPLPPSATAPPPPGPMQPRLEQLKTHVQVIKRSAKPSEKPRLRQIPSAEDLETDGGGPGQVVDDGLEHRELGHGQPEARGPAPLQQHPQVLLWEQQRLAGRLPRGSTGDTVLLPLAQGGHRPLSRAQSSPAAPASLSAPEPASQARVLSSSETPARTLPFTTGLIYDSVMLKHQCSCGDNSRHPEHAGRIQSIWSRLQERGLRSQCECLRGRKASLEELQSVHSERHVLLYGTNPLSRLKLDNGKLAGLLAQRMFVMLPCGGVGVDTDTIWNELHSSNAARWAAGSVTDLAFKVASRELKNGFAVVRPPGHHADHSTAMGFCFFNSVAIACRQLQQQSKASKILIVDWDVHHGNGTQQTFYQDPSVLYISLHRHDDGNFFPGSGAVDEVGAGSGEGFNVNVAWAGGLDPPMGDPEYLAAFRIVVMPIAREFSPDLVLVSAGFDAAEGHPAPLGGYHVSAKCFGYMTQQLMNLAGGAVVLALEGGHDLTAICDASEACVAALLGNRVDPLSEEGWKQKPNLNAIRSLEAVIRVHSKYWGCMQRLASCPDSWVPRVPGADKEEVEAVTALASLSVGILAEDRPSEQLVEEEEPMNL
Chain of HDAC5 (Q9UQL6 whole entry): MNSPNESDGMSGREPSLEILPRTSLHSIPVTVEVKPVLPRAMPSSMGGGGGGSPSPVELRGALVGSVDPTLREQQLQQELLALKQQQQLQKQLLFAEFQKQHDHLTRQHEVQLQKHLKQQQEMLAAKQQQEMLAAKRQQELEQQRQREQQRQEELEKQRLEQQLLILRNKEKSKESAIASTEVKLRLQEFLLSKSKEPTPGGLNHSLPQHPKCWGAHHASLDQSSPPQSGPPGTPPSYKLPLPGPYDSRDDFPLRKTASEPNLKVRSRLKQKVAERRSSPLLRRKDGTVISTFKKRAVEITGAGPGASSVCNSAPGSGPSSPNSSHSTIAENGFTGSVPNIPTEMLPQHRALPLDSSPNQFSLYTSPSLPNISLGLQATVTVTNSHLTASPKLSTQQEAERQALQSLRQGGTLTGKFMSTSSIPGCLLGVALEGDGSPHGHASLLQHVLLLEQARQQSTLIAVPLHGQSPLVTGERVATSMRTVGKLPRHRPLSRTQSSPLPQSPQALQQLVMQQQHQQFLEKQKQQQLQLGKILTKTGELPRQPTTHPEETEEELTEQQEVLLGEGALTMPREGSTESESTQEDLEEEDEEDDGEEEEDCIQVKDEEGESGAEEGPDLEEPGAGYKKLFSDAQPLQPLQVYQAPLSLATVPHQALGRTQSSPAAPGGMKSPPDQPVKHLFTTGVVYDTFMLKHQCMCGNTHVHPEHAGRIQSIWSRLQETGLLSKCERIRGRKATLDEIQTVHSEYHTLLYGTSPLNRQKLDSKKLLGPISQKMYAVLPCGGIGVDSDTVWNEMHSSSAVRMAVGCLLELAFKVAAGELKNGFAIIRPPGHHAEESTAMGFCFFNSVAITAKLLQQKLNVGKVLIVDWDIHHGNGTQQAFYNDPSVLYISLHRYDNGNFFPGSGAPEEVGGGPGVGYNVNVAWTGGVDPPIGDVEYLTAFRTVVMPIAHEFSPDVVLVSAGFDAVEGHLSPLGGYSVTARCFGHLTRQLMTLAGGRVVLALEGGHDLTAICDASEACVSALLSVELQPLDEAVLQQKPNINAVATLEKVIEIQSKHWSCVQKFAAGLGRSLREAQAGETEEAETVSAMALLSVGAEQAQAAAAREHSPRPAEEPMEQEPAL

IC50 (HDAC5): > 33 µM
IC50 (HDAC6): > 33 µM
IC50 (HDAC7): > 33 µM
IC50 (HDAC1 [2]; read-out: HDAC1 IC50 3 h Prein, Table 2, 3 h preincubation): 1250 nM
IC50 (HDAC1 [2]; read-out: HDAC1 IC50 3 h Preinc, Table 2A, 3 h preincubation): 1250 nM
IC50 (HDAC1 [2]; read-out: HDAC1 IC50 @3 hr, 3 hr preincubation): 1250 nM
koff (HDAC1 [3]): ~0.0045 s⁻¹
Kon (HDAC1 [3]; HDAC1): ~0.020 min^−1, uM^−1
koff (HDAC1 [3]; HDAC1): ~0.0045 s⁻¹
type of binding to HDAC1 (words) (HDAC1 [3]; HDAC1): fast off inhibitor
type of binding to HDAC1 (words) (HDAC1 [3]; HDAC1, listed as compound 1): slow on/fast off rates
T1/2 (HDAC1 [3]): ~2.5 min
T1/2 (HDAC1 [3]; listed as compound 1): 2.5 min
Ki (HDAC1 [3]; Ki, HDAC1, inhibition kinetics): ~14 µM and 14 µM
more potent inhibitor of HDAC3 than compounds 3 and 4 (HDAC3; IC50, 3 h preincubation): 5-10 times
IC50 (HDAC3; read-out: HDAC3 IC50 3 h Prein, Table 2, 3 h preincubation): 68 nM
IC50 (HDAC3; read-out: HDAC3 IC50 3 h Preinc, Table 2A, 3 h preincubation): 68 nM
IC50 (HDAC3; read-out: HDAC3 IC50 @3 hr, 3 hr preincubation): 68 nM
SMILES: CC(=O)Nc1ccc(C(=O)Nc2ccc(F)cc2N)cc1 [Compound 1, 4-acetamido-N-(2-amino-4-fluorophenyl)benzamide]
HDAC isoform selectivity [1]: HDAC3 selective compound
glucolipotoxicity-induced apoptosis in rat islets (Rat islets): decreases glucolipotoxicity-induced apoptosis in rat islets
effect on amphetamine-induced hyperactivity (dopaminergic signaling): potentiates
suppression of palmitate and/or glucose-induced beta-cell apoptosis (caspase activity) (INS-1E cells): as effective at suppressing palmitate and/or glucose-induced beta-cell apoptosis as CI-994

— patent publication US11377423B2, “Inhibitors of histone deacetylase” (The Broad Institute, Inc., priority 2012, dated 2022)
